Key:
Experiment in all cases: IC50 for competition of protein binding to Kinobeads
Conditions in all cases: assay detail: Kinobeads competition in P. falciparum blood-stage lysate
Q8IEK1 = Q8IEK1 (UniProt O96935)
UniProt C6KSV2 = target: UniProt C6KSV2
UniProt Q8ILG6 = target: UniProt Q8ILG6
UniProt Q8I603 = target: UniProt Q8I603
UniProt C0H4C5 = target: UniProt C0H4C5
UniProt Q8IJT9 = target: UniProt Q8IJT9
UniProt Q8I2A1 = target: UniProt Q8I2A1
UniProt Q8IFN9 = target: UniProt Q8IFN9
UniProt Q8IL08 = target: UniProt Q8IL08
UniProt Q8IJ34 = target: UniProt Q8IJ34
UniProt Q8IC16 = target: UniProt Q8IC16
UniProt Q8I207 = target: UniProt Q8I207
UniProt C6KT23 = target: UniProt C6KT23
UniProt C6KSZ6 = target: UniProt C6KSZ6
UniProt Q8IJE1 = target: UniProt Q8IJE1
UniProt O77381 = target: UniProt O77381
UniProt Q7KQL5 = target: UniProt Q7KQL5
UniProt Q7KQL5, sequence (Q7KQL5 whole entry): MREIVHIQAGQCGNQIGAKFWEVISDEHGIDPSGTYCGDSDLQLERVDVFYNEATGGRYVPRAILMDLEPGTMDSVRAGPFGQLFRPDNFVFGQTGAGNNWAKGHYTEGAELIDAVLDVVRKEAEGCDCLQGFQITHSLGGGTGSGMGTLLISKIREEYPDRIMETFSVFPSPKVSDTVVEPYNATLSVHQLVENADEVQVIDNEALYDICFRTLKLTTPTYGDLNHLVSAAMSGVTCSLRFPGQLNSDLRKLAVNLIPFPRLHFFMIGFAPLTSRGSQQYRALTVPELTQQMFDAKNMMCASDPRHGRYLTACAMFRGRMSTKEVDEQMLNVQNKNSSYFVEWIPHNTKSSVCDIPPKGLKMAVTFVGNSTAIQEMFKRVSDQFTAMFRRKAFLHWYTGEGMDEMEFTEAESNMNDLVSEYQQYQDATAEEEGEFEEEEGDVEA

UniProt Q8I467 = target: UniProt Q8I467
UniProt Q8I467, sequence (Q8I467 whole entry): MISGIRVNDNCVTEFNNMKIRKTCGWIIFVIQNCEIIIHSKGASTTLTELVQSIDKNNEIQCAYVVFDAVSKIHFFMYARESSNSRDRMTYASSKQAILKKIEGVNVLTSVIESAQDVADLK

UniProt Q8IBQ9 = target: UniProt Q8IBQ9
UniProt Q8ID50 = target: UniProt Q8ID50
UniProt C0H4R8 = target: UniProt C0H4R8
UniProt C0H4P4 = target: UniProt C0H4P4
UniProt O96153 = target: UniProt O96153
UniProt Q8IKZ8 = target: UniProt Q8IKZ8
UniProt Q8I202 = target: UniProt Q8I202
UniProt Q8ID31 = target: UniProt Q8ID31
UniProt P61076 = target: UniProt P61076
UniProt P61076, sequence (P61076 whole entry): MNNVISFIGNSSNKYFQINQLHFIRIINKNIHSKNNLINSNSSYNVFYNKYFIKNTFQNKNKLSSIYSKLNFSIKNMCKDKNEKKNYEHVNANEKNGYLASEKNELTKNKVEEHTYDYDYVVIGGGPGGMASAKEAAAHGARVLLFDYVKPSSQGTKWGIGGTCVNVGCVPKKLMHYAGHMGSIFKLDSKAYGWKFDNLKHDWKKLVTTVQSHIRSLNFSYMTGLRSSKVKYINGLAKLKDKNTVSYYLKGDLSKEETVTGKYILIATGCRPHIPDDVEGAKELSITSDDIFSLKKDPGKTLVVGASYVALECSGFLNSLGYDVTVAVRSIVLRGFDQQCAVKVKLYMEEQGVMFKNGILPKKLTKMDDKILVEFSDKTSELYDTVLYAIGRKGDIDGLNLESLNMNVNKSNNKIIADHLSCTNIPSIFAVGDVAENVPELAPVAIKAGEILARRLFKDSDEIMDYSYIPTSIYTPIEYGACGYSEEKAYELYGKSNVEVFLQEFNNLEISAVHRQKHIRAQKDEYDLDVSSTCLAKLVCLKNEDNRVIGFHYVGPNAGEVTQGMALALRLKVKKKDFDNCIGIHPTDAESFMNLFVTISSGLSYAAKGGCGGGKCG

UniProt Q8I5S7 = target: UniProt Q8I5S7
UniProt Q8IIV8 = target: UniProt Q8IIV8
UniProt Q8I527 = target: UniProt Q8I527
UniProt Q8IJW4 = target: UniProt Q8IJW4
UniProt Q8IIW6 = target: UniProt Q8IIW6
UniProt Q7KQL9 = target: UniProt Q7KQL9
UniProt Q7KQL9, sequence (Q7KQL9 whole entry): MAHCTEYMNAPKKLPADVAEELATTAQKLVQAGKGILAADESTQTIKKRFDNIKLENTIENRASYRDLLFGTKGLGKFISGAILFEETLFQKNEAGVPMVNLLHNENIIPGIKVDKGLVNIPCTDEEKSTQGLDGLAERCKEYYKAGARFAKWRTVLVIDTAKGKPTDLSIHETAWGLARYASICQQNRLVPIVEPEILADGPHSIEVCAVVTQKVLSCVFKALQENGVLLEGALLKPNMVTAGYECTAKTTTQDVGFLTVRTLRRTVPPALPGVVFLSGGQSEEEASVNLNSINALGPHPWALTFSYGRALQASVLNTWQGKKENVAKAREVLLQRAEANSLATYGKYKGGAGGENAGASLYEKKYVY

UniProt Q8IJ99 = target: UniProt Q8IJ99
UniProt Q8IIW2 = target: UniProt Q8IIW2
UniProt Q8IJN8 = target: UniProt Q8IJN8
UniProt Q8IIE7 = target: UniProt Q8IIE7
UniProt Q8II71 = target: UniProt Q8II71
UniProt Q8II43 = target: UniProt Q8II43
UniProt C0H491 = target: UniProt C0H491
UniProt Q8I719 = target: UniProt Q8I719
UniProt Q8I719, sequence (Q8I719 whole entry, looked up): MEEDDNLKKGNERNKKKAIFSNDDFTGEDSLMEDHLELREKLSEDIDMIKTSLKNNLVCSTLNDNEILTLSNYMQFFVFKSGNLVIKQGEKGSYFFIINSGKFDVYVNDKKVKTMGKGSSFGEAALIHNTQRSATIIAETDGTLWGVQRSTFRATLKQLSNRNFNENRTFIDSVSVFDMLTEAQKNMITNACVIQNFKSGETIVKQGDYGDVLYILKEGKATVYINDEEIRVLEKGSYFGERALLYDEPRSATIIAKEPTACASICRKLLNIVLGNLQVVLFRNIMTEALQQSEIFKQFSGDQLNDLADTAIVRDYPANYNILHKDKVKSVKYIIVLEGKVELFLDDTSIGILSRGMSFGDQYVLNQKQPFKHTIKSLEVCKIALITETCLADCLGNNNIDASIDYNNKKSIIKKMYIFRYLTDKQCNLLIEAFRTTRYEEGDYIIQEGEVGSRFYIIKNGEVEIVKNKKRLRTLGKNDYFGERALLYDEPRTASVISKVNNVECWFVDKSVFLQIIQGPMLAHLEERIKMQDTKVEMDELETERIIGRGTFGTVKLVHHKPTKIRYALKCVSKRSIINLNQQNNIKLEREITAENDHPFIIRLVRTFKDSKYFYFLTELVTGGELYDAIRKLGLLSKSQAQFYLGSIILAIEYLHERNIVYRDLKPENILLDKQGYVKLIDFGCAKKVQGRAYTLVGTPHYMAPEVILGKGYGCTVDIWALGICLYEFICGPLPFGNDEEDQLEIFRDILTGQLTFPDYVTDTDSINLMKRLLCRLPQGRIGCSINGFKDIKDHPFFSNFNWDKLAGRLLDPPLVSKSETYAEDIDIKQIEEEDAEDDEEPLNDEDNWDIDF

UniProt Q8III6 = target: UniProt Q8III6
UniProt Q8IBN1 = target: UniProt Q8IBN1
UniProt Q8I1R6 = target: UniProt Q8I1R6
UniProt O97284 = target: UniProt O97284
UniProt Q8I3T5 = target: UniProt Q8I3T5
UniProt Q8ID49 = target: UniProt Q8ID49
UniProt Q8IAM2 = target: UniProt Q8IAM2
UniProt Q8IJQ1 = target: UniProt Q8IJQ1
UniProt C0H4Z7 = target: UniProt C0H4Z7
UniProt Q8IAV6 = target: UniProt Q8IAV6
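Also: native unpurified kinases from lysate captured on beads bearing immobilized kinase inhibitors, with bead-bound kinases quantified by mass spectrometry across compound doses.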

Q8IEK1, sequence (O96935 whole entry, one chain of several): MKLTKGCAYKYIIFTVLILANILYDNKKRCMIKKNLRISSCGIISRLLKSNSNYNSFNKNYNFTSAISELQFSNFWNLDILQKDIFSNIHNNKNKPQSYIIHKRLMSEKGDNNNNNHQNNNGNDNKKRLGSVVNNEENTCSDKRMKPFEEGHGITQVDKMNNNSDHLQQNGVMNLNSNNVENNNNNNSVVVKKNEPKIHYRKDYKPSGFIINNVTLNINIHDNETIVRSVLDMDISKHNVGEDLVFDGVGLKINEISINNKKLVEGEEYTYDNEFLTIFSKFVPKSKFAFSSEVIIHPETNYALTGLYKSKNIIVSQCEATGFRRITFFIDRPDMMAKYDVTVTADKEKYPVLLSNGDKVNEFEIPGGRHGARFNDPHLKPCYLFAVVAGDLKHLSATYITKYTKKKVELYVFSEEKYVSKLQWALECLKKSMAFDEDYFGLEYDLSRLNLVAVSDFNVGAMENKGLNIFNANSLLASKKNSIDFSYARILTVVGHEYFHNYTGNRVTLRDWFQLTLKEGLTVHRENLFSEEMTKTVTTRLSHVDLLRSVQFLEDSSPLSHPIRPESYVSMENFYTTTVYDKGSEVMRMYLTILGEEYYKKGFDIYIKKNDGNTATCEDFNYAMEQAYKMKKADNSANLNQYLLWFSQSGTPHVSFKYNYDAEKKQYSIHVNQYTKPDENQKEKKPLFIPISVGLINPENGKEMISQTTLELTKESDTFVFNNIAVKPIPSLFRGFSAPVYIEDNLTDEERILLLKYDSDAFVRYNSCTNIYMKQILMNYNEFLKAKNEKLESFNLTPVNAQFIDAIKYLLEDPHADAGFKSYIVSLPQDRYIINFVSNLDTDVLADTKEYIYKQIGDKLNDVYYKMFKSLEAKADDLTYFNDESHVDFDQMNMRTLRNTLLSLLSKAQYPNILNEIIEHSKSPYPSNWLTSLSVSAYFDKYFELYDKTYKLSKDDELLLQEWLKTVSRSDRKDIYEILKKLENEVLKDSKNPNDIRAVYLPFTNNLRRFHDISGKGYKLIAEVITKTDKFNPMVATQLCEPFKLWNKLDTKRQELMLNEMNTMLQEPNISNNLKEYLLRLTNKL

With `O=c1[nH]c2ccc(Cl)cc2c(NC2CN3CCC2CC3)c1-c1nc2ccccc2[nH]1` (stereo unspecified) [CHIR-124] as the compound, how does the IC50 (Q8IEK1) read?
The IC50 was greater than 20 µM.

And the IC50 (UniProt C6KSV2)?
Its IC50 is greater than 20 µM.

And the IC50 (UniProt Q8ILG6)?
The IC50 was greater than 20 µM.

What about the IC50 (UniProt Q8I603) of the same compound?
The IC50 was greater than 20 µM.

And the IC50 (UniProt C0H4C5)?
The IC50 was greater than 20 µM.

And the IC50 (UniProt Q8IJT9)?
The IC50 was greater than 20 µM.

And the IC50 (UniProt Q8I2A1)?
Its IC50 is greater than 20 µM.

And the IC50 (UniProt Q8IFN9)?
The IC50 was greater than 20 µM.

And the IC50 (UniProt Q8IL08)?
Its IC50 is greater than 20 µM.

And the IC50 (UniProt Q8IJ34)?
The IC50 was greater than 20 µM.

What about the IC50 (UniProt Q8IC16) of the same compound?
The IC50 was greater than 20 µM.

What about the IC50 (UniProt Q8I207) of the same compound?
Its IC50 is greater than 20 µM.

What about the IC50 (UniProt C6KT23) of the same compound?
The IC50 was greater than 20 µM.

What about the IC50 (UniProt C6KSZ6) of the same compound?
Its IC50 is 2.22 µM.

What about the IC50 (UniProt Q8IJE1) of the same compound?
The IC50 was greater than 20 µM.

And the IC50 (UniProt O77381)?
The IC50 was greater than 20 µM.

What about the IC50 (UniProt Q7KQL5) of the same compound?
Its IC50 is greater than 20 µM.

What about the IC50 (UniProt Q8I467) of the same compound?
The IC50 was greater than 20 µM.

What about the IC50 (UniProt Q8IBQ9) of the same compound?
The IC50 was greater than 20 µM.

What about the IC50 (UniProt Q8ID50) of the same compound?
The IC50 was greater than 20 µM.

What about the IC50 (UniProt C0H4R8) of the same compound?
The IC50 was 5.36 µM.

And the IC50 (UniProt C0H4P4)?
The IC50 was greater than 20 µM.

What about the IC50 (UniProt O96153) of the same compound?
Its IC50 is greater than 20 µM.

What about the IC50 (UniProt Q8IKZ8) of the same compound?
Its IC50 is greater than 20 µM.

And the IC50 (UniProt Q8I202)?
Its IC50 is greater than 20 µM.

What about the IC50 (UniProt Q8ID31) of the same compound?
The IC50 was greater than 20 µM.

What about the IC50 (UniProt P61076) of the same compound?
Its IC50 is greater than 20 µM.

And the IC50 (UniProt Q8I5S7)?
Its IC50 is greater than 20 µM.

What about the IC50 (UniProt Q8IIV8) of the same compound?
The IC50 was greater than 20 µM.

What about the IC50 (UniProt Q8I527) of the same compound?
The IC50 was greater than 20 µM.

What about the IC50 (UniProt Q8IJW4) of the same compound?
Its IC50 is greater than 20 µM.

And the IC50 (UniProt Q8IIW6)?
Its IC50 is 0.25 µM.

And the IC50 (UniProt Q7KQL9)?
The IC50 was greater than 20 µM.

And the IC50 (UniProt Q8IJ99)?
Its IC50 is greater than 20 µM.

And the IC50 (UniProt Q8IIW2)?
Its IC50 is greater than 20 µM.

What about the IC50 (UniProt Q8IJN8) of the same compound?
Its IC50 is greater than 20 µM.

And the IC50 (UniProt Q8IIE7)?
Its IC50 is 0.177 µM.

And the IC50 (UniProt Q8II71)?
Its IC50 is greater than 20 µM.

And the IC50 (UniProt Q8II43)?
The IC50 was greater than 20 µM.

And the IC50 (UniProt C0H491)?
The IC50 was greater than 20 µM.

And the IC50 (UniProt Q8I719)?
The IC50 was greater than 20 µM.

And the IC50 (UniProt Q8III6)?
Its IC50 is greater than 20 µM.

What about the IC50 (UniProt Q8IBN1) of the same compound?
The IC50 was greater than 20 µM.

What about the IC50 (UniProt Q8I1R6) of the same compound?
The IC50 was greater than 20 µM.

What about the IC50 (UniProt O97284) of the same compound?
Its IC50 is greater than 20 µM.

What about the IC50 (UniProt Q8I3T5) of the same compound?
The IC50 was greater than 20 µM.

And the IC50 (UniProt Q8ID49)?
Its IC50 is greater than 20 µM.

And the IC50 (UniProt Q8IAM2)?
The IC50 was greater than 20 µM.

What about the IC50 (UniProt Q8IJQ1) of the same compound?
The IC50 was greater than 20 µM.

And the IC50 (UniProt C0H4Z7)?
Its IC50 is greater than 20 µM.

And the IC50 (UniProt Q8IAV6)?
Its IC50 is greater than 20 µM.
